The values that follow are results of earlier work, collected in US4202888A, “Readily enterally absorbable pharmaceutical compositions of cardiac glycosides and preparation thereof” (priority 1976, dated 1980).

For the data set the following is noted: for enteral absorbability (in words): background statement; for per se enteral absorbability: without partial glycerides.

With `C[C@H]1O[C@@H](O[C@H]2[C@@H](O)C[C@H](O[C@H]3[C@@H](O)C[C@H](O[C@H]4CC[C@@]5(C)[C@H](CC[C@@H]6[C@@H]5CC[C@]5(C)[C@@H](C7=CC(=O)OC7)CC[C@]65O)C4)O[C@@H]3C)O[C@@H]2C)C[C@H](O)[C@@H]1O` [digitoxin], the “enteral absorbability (in words)” value is “absorbable completely”.
For `C[C@H]1O[C@@H](O[C@H]2[C@@H](O)C[C@H](O[C@H]3[C@@H](O)C[C@H](O[C@H]4CC[C@@]5(C)[C@H](CC[C@@H]6[C@@H]5C[C@@H](O)[C@]5(C)[C@@H](C7=CC(=O)OC7)CC[C@]65O)C4)O[C@@H]3C)O[C@@H]2C)C[C@H](O)[C@@H]1O` [digoxin], the “enteral absorbability (in words)” value is on record as “to at least an acceptable degree”.
On to `CC1OC(OC2CC(O)C3(CO)C4C(O)CC5(C)C(C6=CC(=O)OC6)CCC5(O)C4CCC3(O)C2)C(O)C(O)C1O` (stereo not drawn) [g-strophanthin], for which the “enteral absorbability (in words)” value was “insufficient enteral absorbability” and the “per se enteral absorbability” value was “less than 5%”. Moreover, the “factor of individual variation in enteral absorption” value (between individuals) is recorded as 10.
Take `C[C@@H]1O[C@@H](O[C@@H]2C=C3CC[C@@H]4[C@H](CC[C@]5(C)[C@@H](c6ccc(=O)oc6)CC[C@]45O)[C@@]3(C)CC2)[C@H](O)[C@H](O)[C@H]1O` [proscillaridin]: the “enteral absorbability (in words)” value is “insufficient enteral absorbability” and the “per se enteral absorbability” value is on record as “less than 5%”.
In the case of k-strophanthin, the “enteral absorbability (in words)” value was “insufficient enteral absorbability” and the “per se enteral absorbability” value is “less than 5%”.
